These results are taken from patent US8841312B2, “Fused pyridine, pyrimidine and triazine compounds as cell cycle inhibitors” (Amgen Inc., priority 2007, dated 2014).

The structures appear in SMILES notation.

One assay has as its target Cdk4/CyclinD1 (Homo sapiens (Human), UniProt P11802). The assay is described as follows: Cdk4 kinase inhibition assay with recombinant Cdk4/CyclinD1, Rb substrate, [33P]-ATP filter plate. It is filed as biochemical. Particulars: 25 μM ATP, read-out: Cdk 4 IC50. Summed up:
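Recombinant Cdk4/CyclinD1 or Cdk6/CyclinD3 phosphorylated Rb protein with [33P]-ATP for 1 h at room temperature. Protein was TCA-precipitated on filter plates and bound radioactivity counted. IC50 by nonlinear regression.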

The next assay concerns the target Cdk6/CyclinD3 (Homo sapiens (Human), UniProt Q00534). In words: Cdk6 kinase inhibition assay with recombinant Cdk6/CyclinD3, Rb substrate, [33P]-ATP filter plate. It is filed as biochemical. The note with it: 25 μM ATP, read-out: Cdk 6 IC50. How it is done:
The Cdk4 and Cdk6 inhibitory activity of the compounds is measured with a kinase inhibition assay using recombinant Cdk4/CyclinD1 or Cdk6/CyclinD3 protein complexes. The protein substrate used in the assay is the retinoblastoma protein (Rb). The kinase reactions are carried out in a 96-well filter plate (MSDV N6B50, Millipore). […] The mixture is incubated at room temperature for 1 hour and the proteins precipitated with an equal volume of 20% TCA. The plates are washed with 10% TCA according to the manufacturer's instruction and dried at room temperature. The amount of the phosphorylated Rb is determined with a TopCount (PerkinElmer). The IC50 of a compound is determined by nonlinear regression curve fitting using software program Prism 5 (GraphPad Software).

Chain of Cdk6/CyclinD3 (Q00534 whole entry): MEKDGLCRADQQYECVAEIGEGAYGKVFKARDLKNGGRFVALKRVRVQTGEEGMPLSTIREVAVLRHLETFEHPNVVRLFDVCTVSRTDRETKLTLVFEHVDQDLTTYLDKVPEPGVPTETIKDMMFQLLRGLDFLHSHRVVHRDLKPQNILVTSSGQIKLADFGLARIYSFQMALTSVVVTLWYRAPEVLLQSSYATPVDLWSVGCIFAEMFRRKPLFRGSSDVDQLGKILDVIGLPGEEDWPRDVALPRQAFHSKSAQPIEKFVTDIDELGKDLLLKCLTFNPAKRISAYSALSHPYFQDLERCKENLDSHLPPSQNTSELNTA
Chain of Cdk6/CyclinD3 (P30281 whole entry partner): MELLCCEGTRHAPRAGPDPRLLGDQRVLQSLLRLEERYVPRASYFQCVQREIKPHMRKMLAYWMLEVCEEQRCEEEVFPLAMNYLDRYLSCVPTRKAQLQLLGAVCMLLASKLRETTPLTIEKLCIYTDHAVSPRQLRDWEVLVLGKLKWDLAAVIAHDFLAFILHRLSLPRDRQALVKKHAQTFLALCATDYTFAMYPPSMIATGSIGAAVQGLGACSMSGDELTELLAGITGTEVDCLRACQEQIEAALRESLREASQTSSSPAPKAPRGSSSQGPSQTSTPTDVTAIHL
Chain of Cdk4/CyclinD1 (P11802 whole entry): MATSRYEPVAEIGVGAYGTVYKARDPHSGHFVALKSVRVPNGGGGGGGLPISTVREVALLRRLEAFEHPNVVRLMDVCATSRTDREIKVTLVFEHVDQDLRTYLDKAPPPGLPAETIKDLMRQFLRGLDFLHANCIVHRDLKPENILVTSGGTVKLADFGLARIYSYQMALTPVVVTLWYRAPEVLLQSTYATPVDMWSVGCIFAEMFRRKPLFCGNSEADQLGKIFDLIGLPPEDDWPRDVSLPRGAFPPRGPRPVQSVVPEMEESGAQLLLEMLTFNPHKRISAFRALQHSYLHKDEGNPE
Chain of Cdk4/CyclinD1 (P24385 whole entry partner): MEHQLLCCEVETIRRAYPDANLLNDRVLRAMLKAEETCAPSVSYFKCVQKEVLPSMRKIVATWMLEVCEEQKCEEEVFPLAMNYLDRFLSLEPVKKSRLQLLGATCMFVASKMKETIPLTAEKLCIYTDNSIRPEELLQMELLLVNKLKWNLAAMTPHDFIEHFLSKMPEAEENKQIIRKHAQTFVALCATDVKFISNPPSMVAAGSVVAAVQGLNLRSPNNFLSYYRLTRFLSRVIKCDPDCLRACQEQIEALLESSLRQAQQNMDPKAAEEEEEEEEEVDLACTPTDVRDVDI

On to `c1cc2c3cnc(Nc4ccc(N5CCNCC5)cn4)nc3n(C3CCOCC3)c2cn1` [Example 20, (5-piperazin-1-yl-pyridine-2-yl)-[9-(tetrahydro-pyran-4-yl)-9H-pyrido-[4′,3′,4,5]pyrrolo[2,3-d]pyrimidin-2-yl]-amine], for which the IC50 came to 8.1 nM at Cdk4/CyclinD1 and 57 nM on Cdk6/CyclinD3.

As for `c1ccc2c(c1)c1cnc(Nc3ccc(N4CCNCC4)cc3)nc1n2C1CCCCC1` [Example 21, (9-Cyclohexyl-9H-pyrimido[4,5-b]indol-2-yl)-(4-piperazin-1-yl-phenyl)-amine], the IC50 at Cdk4/CyclinD1 is 1 nM; on Cdk6/CyclinD3, 0.41 nM.

Regarding `c1ccc2c(c1)c1cnc(Nc3ccc(N4CCNCC4)cn3)nc1n2C1CCCCC1` [Example 22, (9-Cyclohexyl-9H-pyrimido[4,5-b]indol-2-yl)-(5-piperazin-1-yl-pyridin-2-yl)-amine], the figures for the IC50 on Cdk4/CyclinD1 and at Cdk6/CyclinD3 were 1.3 nM and 2.5 nM, respectively.

For `c1cc2c3cnc(Nc4ccc(N5CCNCC5)cn4)nc3n(C3CC4CCC3C4)c2cn1` (stereo not shown) [Example 24, (9-Bicyclo[2.2.1]hept-2-yl-9H-pyrido[4′,3′:4,5]pyrrolo[2,3-d]pyrimidin-2-yl)-(5-piperazin-1-yl-pyridin-2-yl)-amine], the IC50 at Cdk4/CyclinD1 was 0.94 nM; on Cdk6/CyclinD3 it was 5.1 nM.

As for `c1ccc2c(c1)CCC2n1c2cnccc2c2cnc(Nc3ccc(N4CCNCC4)cn3)nc21` (stereo not shown) [Example 25, (9-Indan-1-yl-9H-pyrido[4′,3′:4,5]pyrrolo[2,3-d]pyrimidin-2-yl)-(5-piperazin-1-yl-pyridin-2-yl)-amine], the IC50 on Cdk4/CyclinD1 was 30 nM; at Cdk6/CyclinD3 it was 38 nM.

Turning to `c1cc2c3cnc(Nc4ccc(N5CCNCC5)cn4)nc3n(C34CC5CC(CC(C5)C3)C4)c2cn1` [Example 26, (9-Adamantan-1-yl-9H-pyrido[4′,3′:4,5]pyrrolo[2,3-d]pyrimidin-2-yl)-(5-piperazin-1-yl-pyridin-2-yl)-amine], the IC50 came out at 1.6 nM at Cdk4/CyclinD1 and 3.5 nM on Cdk6/CyclinD3.

On to `CC(C)(C)n1c2cnccc2c2cnc(Nc3ccc(N4CCNCC4)cn3)nc21` [Example 27, (9-tert-Butyl-9H-pyrido[4′,3′:4,5]pyrrolo[2,3-d]pyrimidin-2-yl)-(5-piperazin-1-yl-pyridin-2-yl)-amine], for which the IC50 on Cdk4/CyclinD1 was found to be 5.5 nM; at Cdk6/CyclinD3 it was 7 nM.

As to `C[C@H](C1CCCCC1)n1c2cnccc2c2cnc(Nc3ccc(N4CCNCC4)cn3)nc21` [Example 28, (R)-[9-(1-Cyclohexyl-ethyl)-9H-pyrido[4′,3′:4,5]pyrrolo[2,3-d]pyrimidin-2-yl]-(5-piperazin-1-yl-pyridin-2-yl)-amine], the IC50 on Cdk4/CyclinD1 was 57 nM; on Cdk6/CyclinD3 it was 61 nM.

`C[C@@H](C1CCCCC1)n1c2cnccc2c2cnc(Nc3ccc(N4CCNCC4)cn3)nc21` [Example 29]: the IC50 at Cdk4/CyclinD1 amounted to 3.9 nM; at Cdk6/CyclinD3 it was 5.7 nM.

On to `O[C@H]1CC[C@H](n2c3cnccc3c3cnc(Nc4ccc(N5CCNCC5)cn4)nc32)CC1` [Example 31, 4-[2-(5-piperazin-1-yl-pyridin-2-ylamino)-pyrido[4′,3′:4,5]pyrrolo[2,3-d]pyrimidin-9-yl]-trans-cyclohexanol], for which the IC50 was determined as 2.5 nM on Cdk4/CyclinD1 and 5.9 nM on Cdk6/CyclinD3.

With `c1cc2c3cnc(Nc4ccc(N5CCNCC5)cn4)nc3n(CC3CCCCC3)c2cn1` [Example 32, (9-Cyclohexylmethyl-9H-pyrido[4′,3′:4,5]pyrrolo[2,3-d]pyrimidin-2-yl)-(5-piperazin-1-yl-pyridin-2-yl)-amine], the figures for the IC50 at Cdk4/CyclinD1 and at Cdk6/CyclinD3 were 13 nM and 30.4 nM, respectively.

Regarding `CC1(n2c3cnccc3c3cnc(Nc4ccc(N5CCNCC5)cn4)nc32)CCC1` [Example 33, [9-(1-Methyl-cyclobutyl)-9H-pyrido[4′,3′:4,5]pyrrolo[2,3-d]pyrimidin-2-yl]-(5-piperazin-1-yl-pyridin-2-yl)-amine], the IC50 worked out at 5.3 nM on Cdk4/CyclinD1 and 8.9 nM on Cdk6/CyclinD3.

On to `c1cc2c3cnc(Nc4ccc(N5CCNCC5)cn4)nc3n(C3CCCCCC3)c2cn1` [Example 34, (9-Cycloheptyl-9H-pyrido[4′,3′:4,5]pyrrolo[2,3-d]pyrimidin-2-yl)-(5-piperazin-1-yl-pyridin-2-yl)-amine], for which the figures for the IC50 on Cdk4/CyclinD1 and at Cdk6/CyclinD3 were 11 nM and 21 nM, respectively.

As to `c1cnc2c(c1)c1cnc(Nc3ccc(N4CCNCC4)cn3)nc1n2C1CCCC1` [Example 35, (9-Cyclopentyl-9H-pyrido[3′,2′:4,5]pyrrolo[2,3-d]pyrimidin-2-yl)-(5-piperazin-1-yl-pyridin-2-yl)-amine], the concentration for half-maximal inhibition (IC50) on Cdk4/CyclinD1 came to 8.2 nM; at Cdk6/CyclinD3 it was 21 nM.

With `c1cnc2c(c1)c1cnc(Nc3ccc(N4CCNCC4)cc3)nc1n2C1CCCC1` [Example 36, (9-Cyclopentyl-9H-pyrido[3′,2′:4,5]pyrrolo[2,3-d]pyrimidin-2-yl)-(4-piperazin-1-yl-phenyl)-amine], the IC50 on Cdk4/CyclinD1 was 0.83 nM; at Cdk6/CyclinD3 it was 4.4 nM.

With `c1ccc2c(c1)c1cnc(Nc3ccc(N4CCNCC4)cn3)nc1n2C1CCCC1` [Example 37, (9-Cyclopentyl-9H-pyrimido[4,5-b]indol-2-yl)-(5-piperazin-1-yl-pyridin-2-yl)-amine], the IC50 on Cdk4/CyclinD1 worked out at 4.3 nM; on Cdk6/CyclinD3, 1.2 nM.

Regarding `c1ccc2c(c1)c1cnc(Nc3ccc(N4CCNCC4)cn3)nc1n2C1CCOCC1` [Example 38, (5-piperazin-1-yl-pyridin-2-yl)-[9-(tetrahydro-pyran-4-yl)-9H-pyrimido[4,5-b]indol-2-yl]-amine], the IC50 is 2.1 nM on Cdk4/CyclinD1 and 15.3 nM on Cdk6/CyclinD3.

In the case of `c1ccc2c(c1)c1cnc(Nc3ccc(N4CCNCC4)cn3)nc1n2C1CCCCCC1` [Example 39, (9-Cycloheptyl-9H-pyrimido[4,5-b]indol-2-yl)-(5-piperazin-1-yl-pyridin-2-yl)-amine], the values for the IC50 at Cdk4/CyclinD1 and on Cdk6/CyclinD3 were 2.1 nM and 3.1 nM, respectively.

For the molecule `N#Cc1ccc2c3cnc(Nc4ccc(N5CCNCC5)cn4)nc3n(C3CCCC3)c2c1` [Example 41, 9-Cyclopentyl-2-(5-piperazin-1-yl-pyridin-2-ylamino)-9H-pyrimido[4,5-b]indole-7-carbonitrile], the results for the IC50 on Cdk4/CyclinD1 and on Cdk6/CyclinD3 were 2.7 nM and 7.2 nM, respectively.

In the case of `COc1cc2c3cnc(Nc4ccc(N5CCNCC5)cn4)nc3n(C3CCCC3)c2cn1` [Example 42, (9-Cyclopentyl-6-methoxy-9H-pyrido[4′,3′:4,5]pyrrolo[2,3-d]pyrimidin-2-yl)-(5-piperazin-1-yl-pyridin-2-yl)-amine], the IC50 came out at 237 nM on Cdk4/CyclinD1 and 500 nM on Cdk6/CyclinD3.

Take `Oc1cc2c3cnc(Nc4ccc(N5CCNCC5)cn4)nc3n(C3CCCC3)c2cn1` [Example 43, 9-Cyclopentyl-2-(5-piperazin-1-yl-pyridin-2-ylamino)-9H-pyrido[4′,3′:4,5]pyrrolo[2,3-d]pyrimidin-6-ol]: the IC50 was found to be 136 nM at Cdk4/CyclinD1 and 218 nM on Cdk6/CyclinD3.

For `OCC1(n2c3cnccc3c3cnc(Nc4ccc(N5CCNCC5)cn4)nc32)CCCC1` [Example 44, {1-[2-(5-piperazin-1-yl-pyridin-2-ylamino)-pyrido[4′,3′:4,5]pyrrolo[2,3-d]pyrimidin-9-yl]-cyclopentyl}-methanol], the concentration for half-maximal inhibition (IC50) at Cdk4/CyclinD1 was determined as 11 nM; at Cdk6/CyclinD3, 25 nM.

Take `CC(C)(CO)Cn1c2cnccc2c2cnc(Nc3ccc(N4CCNCC4)cn3)nc21` [Example 45, 2,2-Dimethyl-3-[2-(5-piperazin-1-yl-pyridin-2-ylamino)-pyrido[4′,3′:4,5]pyrrolo[2,3-d]pyrimidin-9-yl]-propan-1-ol]: the IC50 turned out to be 73 nM at Cdk4/CyclinD1 and 129 nM at Cdk6/CyclinD3.

Take `c1ccc2c(c1)c1cnc(Nc3ccc(N4CCNCC4)cc3)nc1n2C1CCOCC1` [Example 46, (4-piperazin-1-yl-phenyl)-[9-(tetrahydro-pyran-4-yl)-9H-pyrimido[4,5-b]indol-2-yl]-amine]: the IC50 at Cdk4/CyclinD1 turned out to be 2 nM; at Cdk6/CyclinD3, 0.75 nM.

Regarding `c1ccc2c(c1)c1cnc(Nc3ccc(N4CCNCC4)cc3)nc1n2C1CCCC1` [Example 47, (9-Cyclopentyl-9H-pyrimido[4,5-b]indol-2-yl)-(4-piperazin-1-yl-phenyl)-amine], the IC50 on Cdk4/CyclinD1 came out at 2 nM; on Cdk6/CyclinD3, 3.7 nM.

Consider `c1cc2c3cnc(Nc4ccc(N5CCCNCC5)cn4)nc3n(C3CCCC3)c2cn1` [Example 48, 9-cyclopentyl-N-(5-(1,4-diazepan-1-yl)-2-pyridinyl)-9H-pyrido[4′,3′:4,5]pyrrolo[2,3-d]pyrimidin-2-amine], for which the IC50 at Cdk4/CyclinD1 worked out at 1.6 nM; on Cdk6/CyclinD3, 5.6 nM.

As to `O=C(c1cnc(Nc2ncc3c4ccncc4n(C4CCCC4)c3n2)s1)N1CCNCC1` [Example 50, 9-cyclopentyl-N-(5-(1-piperazinylcarbonyl)-1,3-thiazol-2-yl)-9H-pyrido[4′,3′:4,5]pyrrolo[2,3-d]pyrimidin-2-amine], the IC50 on Cdk4/CyclinD1 was found to be 66 nM; at Cdk6/CyclinD3, 112 nM.

Consider `Cc1cc(N2CCNCC2)cnc1Nc1ncc2c3ccncc3n(C3CCCC3)c2n1` [Example 51, 9-cyclopentyl-N-(3-methyl-5-(1-piperazinyl)-2-pyridinyl)-9H-pyrido[4′,3′:4,5]pyrrolo[2,3-d]pyrimidin-2-amine], for which the IC50 on Cdk4/CyclinD1 was determined as 126 nM; on Cdk6/CyclinD3, 406 nM.

As for `COc1nccc2c3cnc(Nc4ccc(N5CCNCC5)cn4)nc3n(C3CCCC3)c12` [Example 52, 9-cyclopentyl-8-(methyloxy)-N-(5-(1-piperazinyl)-2-pyridinyl)-9H-pyrido[4′,3′:4,5]-pyrrolo[2,3-d]pyrimidin-2-amine], the IC50 is 12 nM at Cdk4/CyclinD1 and 22 nM at Cdk6/CyclinD3.
